What was measured:
Format in all cases: cell-based, chicken
L-VGCC = assay: Whole-cell patch-clamp recordings of L-VGCC currents in cultured embryonic cardiomyocytes
Experimental: (§1) Fertilized eggs (Gallus gallus, Single Comb White Leghorns) were obtained from the Poultry Science Department, Texas A&M University (College Station, Tex., USA). All chicken embryos were maintained at 39° C.±0.5° C. Chicken hearts were harvested at embryonic day 12 (E12) and ventricular cardiomyocytes were dissociated and cultured on poly-D-lysine/collagen double-coated dishes (for biochemical and molecular biological assays) or coverslips (for electrophysiological recordings) as described previously. All cultures were maintained at 39° C.±0.5° C. with 5% CO2. Cells were cultured for 2-3 days and subjected to treatments with vehicle, peptide Lv, or pharmaceutical blockers prior to Western blotting or electrophysiological recordings.
Ventricular cardiomyocytes were cultured for two days. Whole-cell patch-clamp recordings of L-VGCC currents were carried out from spontaneously pulsing cardiomyocytes. The external solution was (in mM): 145 TEACl, 9 BaCl2, 0.5 MgCl2, 5.5 glucose, 0.1 NiCl2, and 5 HEPES, pH 7.4 with CsOH or TEAOH. The pipette solution was (in mM): 125 Cs acetate, 20 CsCl, 3MgCl2, 10 EGTA, and 5 HEPES, pH 7.4 adjusted with CsOH. Currents were recorded at room temperature using an A-M Systems model 2400 patch-clamp amplifier (Sequim, Wash., USA). Signals were low-pass filtered at 2 kHz and digitized at 5 kHz with Digidata 1440A interface and pCLAMP 10.0 software (Molecular Devices, Sunnyvale, Calif., USA). Cardiomyocytes were held at −40 mV, and Ba^2+ currents were recorded immediately after whole-cell patches were formed by gentle suctions. Current-voltage (I-V) relationships were elicited from a holding potential at −40 mV using 200 ms steps (5 seconds between steps) over a range from −60 to +60 mV in 10 mV increments. The current densities were calculated by dividing the current amplitudes (pA) by membrane capacitances (pF).

VEGFR2 = assay: Western blot of VEGFR2 autophosphorylation (pVEGFR2-tyr1054/1059) in cultured embryonic cardiomyocytes; settings: DMH4 in presence of peptide Lv
Experimental: as §1
(§2) Treated or control cells were washed and lysed in radioimmunoprecipitation assay (RIPA) buffer, and proteins were denatured by mixing with 2× Laemmli sample buffer for 5 minutes at 95° C. Samples were separated on 10% sodium dodecyl sulfate-polyacrylamide gel electrophoresis (SDS-PAGE) gels and transferred to nitrocellulose membranes. The primary antibodies used in this study were pan L-VGCCα1, ERK1/2, di-phosphorylated ERK1/2, actin, phosphorylated PKC α/βII subunit, phosphorylated tyrosine, VEGFR2, and phosphorylated VEGFR2 at tyr1054/1059. […]

ERK and PKC = assay: Western blot of pERK and pPKCα/β (downstream of VEGFR2) in cultured cardiomyocytes; settings: inhibitor with peptide Lv
Experimental: as §1, §2

COc1ccc2c(c[n+](C)c3c4cc5c(cc4ccc23)OCO5)c1OC [chelerythrine]
peptide Lv augmentation of L-VGCC currents (L-VGCC; chelerythrine 2 μM): decreased the peptide Lv augmentation of L-VGCC currents

DMH4
block of VEGFa augmentation of L-VGCCs (L-VGCC; DMH4 5 μM with VEGFa): blocked the augmentation of L-VGCCs by VEGFa
L-VGCCs, inhibitor by itself (L-VGCC; DMH4 alone, without peptide Lv): did not affect the LVGCCs
block of peptide Lv augmentation of L-VGCC currents (L-VGCC; DMH4 together with peptide Lv): able to block the augmentation effect of peptide Lv on L-VGCC currents
inhibition of peptide Lv-enhanced VEGFR2 phosphorylation (VEGFR2): sensitive to DMH4 inhibition

CN=c1nc(-c2ccccc2)n(-c2ccccc2)s1 [SCH202676]
inhibition of effects of peptide Lv on pERK and pPKCα/β (ERK and PKC): did not inhibit the effects of peptide Lv on pERK and pPKCα/β

COc1cccc(-c2cc(=O)c3ccccc3o2)c1N [PD98059]
peptide Lv augmentation of L-VGCC currents (L-VGCC; PD98059 50 μM): decreased the peptide Lv augmentation of L-VGCC currents

Source: US20170224775A1, “Lv PEPTIDE, ANTI-Lv ANTIBODY AND METHODS THEREOF” (The Texas A&M University System, priority 2016, published 2017)
